The supplement of paper PMC11579375

Experiments:
Assay in all cases: area under the viability dose-response curve (AUC) (AUC (arbitrary units, max 500 = no viability loss)); higher = less sensitive (higher viability)
Settings in all cases: exposure time: 120 h; concentration range: 0.1 nM - 10 µM, 6 doses
22E = tested on: 22E (embryonal-type hepatoblastoma organoid)
Description: (§1)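 Patient-derived hepatoblastoma tumor organoids (about 50 organoids per well, 384-well plates, medium with 5% BME) were treated with the PMC pediatric cancer drug library. Each drug was tested in duplicate at 6 concentrations (0.1 nM to 10 µM, 10-fold steps).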

27F1 = tested on: 27F1 (fetal-I hepatoblastoma organoid with intermediate liver markers)
Description: as §1

96F1 = tested on: 96F1 (fetal-I hepatoblastoma organoid with intermediate liver markers)
Description: as §1

3E = tested on: 3E (embryonal-type hepatoblastoma organoid)
Description: as §1

8F1 = tested on: 8F1 (fetal-I hepatoblastoma organoid with intermediate liver markers)
Description: as §1

13E = tested on: 13E (embryonal-type hepatoblastoma organoid)
Description: as §1

17E = tested on: 17E (embryonal-type hepatoblastoma organoid)
Description: as §1

135F2 = tested on: 135F2 (fetal-II hepatoblastoma organoid with high liver markers)
Description: as §1

17F1 = tested on: 17F1 (fetal-I hepatoblastoma organoid with intermediate liver markers)
Description: as §1

13F2 = tested on: 13F2 (fetal-II hepatoblastoma organoid with high liver markers)
Description: as §1

10F2 = tested on: 10F2 (fetal-II hepatoblastoma organoid with high liver markers)
Description: as §1

SMILES	area under the viability dose-response curve (22E)	area under the viability dose-response curve (27F1)	area under the viability dose-response curve (96F1)	area under the viability dose-response curve (3E)	area under the viability dose-response curve (8F1)	area under the viability dose-response curve (13E)	area under the viability dose-response curve (17E)	area under the viability dose-response curve (135F2)	area under the viability dose-response curve (17F1)	area under the viability dose-response curve (13F2)	area under the viability dose-response curve (10F2)
COc1cc([C@@H]2c3cc4c(cc3[C@@H](O[C@@H]3O[C@@H]5CO[C@@H](C)O[C@H]5[C@H](O)[C@H]3O)[C@H]3COC(=O)[C@H]23)OCO4)cc(OC)c1O [Etoposide]	446	446	383	378	477	380	349	389	438	359	388
Cn1nnc2c(C(N)=O)ncn2c1=O [Temozolomide]	490	> 500	480	499	> 500	> 500	462	> 500	494	487	468
C[C@@H](Oc1cc(-c2cnn(C3CCNCC3)c2)cnc1N)c1c(Cl)ccc(F)c1Cl [Crizotinib]	420	441	462	379	477	415	405	422	431	398	369
CCn1cc(-c2ccnc3[nH]c(-c4cccc(CN(C)C)c4)cc23)c(-c2ccc(NC(=O)N(C)C)cc2)n1	408	387	413	322	458	382	297	370	477	298	307
C[C@@H](c1ccc2nccn2c1)n1nnc2ncc(-c3cnn(C)c3)nc21 [Savolitinib]	> 500	> 500	> 500	489	> 500	> 500	499	497	489	> 500	472
CC[C@]1(O)C[C@@H]2CN(CCc3c([nH]c4ccccc34)[C@@](C(=O)OC)(c3cc4c(cc3OC)N(C)[C@H]3[C@@](O)(C(N)=O)[C@H](O)[C@]5(CC)C=CCN6CC[C@]43[C@@H]65)C2)C1 [Vindesine]	219	238	173	170	211	204	206	202	239	246	195
CC1=C(/C=C/C(C)=C/C=C/C(C)=C\C(=O)O)C(C)(C)CCC1 [Isotretinoin]	472	> 500	> 500	440	> 500	468	495	496	> 500	> 500	> 500
COc1cc2nccc(Oc3ccc(NC(=O)C4(C(=O)Nc5ccc(F)cc5)CC4)cc3)c2cc1OC [Cabozantinib]	445	> 500	475	457	489	478	439	491	> 500	442	488
Nc1ccn([C@@H]2O[C@H](CO)[C@@H](O)C2(F)F)c(=O)n1 [Gemcitabine]	331	310	273	241	433	339	257	237	273	209	212
S=c1nc[nH]c2nc[nH]c12 [6-Mercaptopurine]	460	469	420	> 500	465	449	429	402	451	443	478
Cc1sc2c(c1C)C(c1ccc(Cl)cc1)=N[C@@H](CC(N)=O)c1nnc(C)n1-2 [CPI-203]	413	468	473	342	447	410	373	334	467	336	335
CNC(=O)c1cccc(-c2ccc3c(N4CCOC[C@@H]4C)nc(N4CCOC[C@@H]4C)nc3n2)c1 [Vistusertib]	426	407	460	376	470	409	392	407	498	342	324
C=CC(=O)N1CCC[C@@H](n2nc(-c3ccc(Oc4ccccc4)cc3)c3c(N)ncnc32)C1 [Ibrutinib]	443	418	438	> 500	480	476	439	455	488	358	386
C[C@@H]1CN(C(=O)c2ccc(NC(=O)c3cc(O[C@H](C)c4c(Cl)ccc(F)c4Cl)c(N)nn3)cc2)C[C@H](C)N1 [Ensartinib]	393	468	456	403	444	422	411	449	483	410	449
C[C@]12C=CC(=O)C=C1CC[C@@H]1[C@@H]2[C@@H](O)C[C@@]2(C)[C@H]1CC[C@]2(O)C(=O)CO [Prednisolone]	487	489	479	472	472	494	467	475	493	> 500	475
Cn1nccc1Nc1nccc(-c2ccn([C@H](CO)c3ccc(Cl)c(F)c3)c(=O)c2)n1 [Ravoxertinib]	468	> 500	483	494	> 500	470	475	380	> 500	354	331
CC(=O)c1c(C)c2cnc(Nc3ccc(N4CCNCC4)cn3)nc2n(C2CCCC2)c1=O [Palbociclib]	460	470	460	382	499	467	373	431	> 500	337	398

SMILES	area under the viability dose-response curve (22E)	area under the viability dose-response curve (27F1)	area under the viability dose-response curve (96F1)	area under the viability dose-response curve (3E)	area under the viability dose-response curve (8F1)	area under the viability dose-response curve (13E)	area under the viability dose-response curve (17E)	area under the viability dose-response curve (135F2)	area under the viability dose-response curve (17F1)	area under the viability dose-response curve (13F2)	area under the viability dose-response curve (10F2)
C[C@H](NC(=O)CCC(F)(F)F)C(=O)N[C@@H]1C(=O)N(CCO)c2ncccc2-c2ccccc21 [Crenigacestat]	474	484	480	458	498	482	482	479	> 500	418	389
CN[C@@H](C)C(=O)N[C@H](C(=O)N1CCC[C@H]1C(=O)N[C@H]1c2ccccc2C[C@H]1OCC#CC#CCO[C@@H]1Cc2ccccc2[C@@H]1NC(=O)[C@@H]1CCCN1C(=O)[C@@H](NC(=O)[C@H](C)NC)C1CCCCC1)C1CCCCC1 [AZD5582]	82.8	394	458	148	414	424	473	483	446	470	321
S=P(N1CC1)(N1CC1)N1CC1 [ThioTEPA]	474	472	461	400	478	483	443	440	488	433	394
CS(=O)(=O)c1ccc(C(=O)Nc2ccc(Cl)c(-c3ccccn3)c2)c(Cl)c1 [Vismodegib]	452	497	494	> 500	> 500	496	> 500	473	489	490	443
COc1cc(OC)cc(N(CCNC(C)C)c2ccc3ncc(-c4cnn(C)c4)nc3c2)c1 [Erdafitinib]	345	467	498	227	489	341	231	496	499	323	448
Cc1cccc(-c2[nH]c(CNc3ccccc3F)nc2-c2ccc3ncnn3c2)n1 [Vactosertib]	481	> 500	496	419	491	493	> 500	481	> 500	> 500	394
CCn1c(-c2nonc2N)nc2cnc(Oc3cccc(NC(=O)c4ccc(OCCN5CCOCC5)cc4)c3)cc21	468	481	469	493	467	478	450	441	451	392	348
Cn1ncnc1[C@H]1c2n[nH]c(=O)c3cc(F)cc(c23)N[C@@H]1c1ccc(F)cc1 [Talazoparib]	444	403	439	341	438	399	383	392	486	328	367
CCNC(=O)C[C@@H]1N=C(c2ccc(Cl)cc2)c2cc(OC)ccc2-n2c(C)nnc21 [Molibresib]	442	498	497	378	465	468	400	417	477	389	386
CNC(=O)c1ccc(-c2cnc3ncc(Cc4ccc5ncccc5c4)n3n2)cc1F [Capmatinib]	462	465	478	> 500	460	498	481	491	477	403	> 500
O=C(CCCCCCC(=O)Nc1ccccc1)NO [Vorinostat]	421	440	435	379	452	428	406	408	437	400	404
O=C(c1cc(Cc2n[nH]c(=O)c3ccccc23)ccc1F)N1CCN(C(=O)C2CC2)CC1 [Olaparib]	458	476	490	477	> 500	496	494	492	> 500	491	470
CCn1cc(-c2cccc(C(F)(F)F)c2)c2sc(C(=N)NC3CCS(=O)(=O)CC3)cc2c1=O [I-BRD9]	493	> 500	478	376	459	470	461	471	490	435	> 500
O=c1nc(N2CCOCC2)oc2c(-c3cccc4c3sc3ccccc34)cccc12 [LTURM34]	433	> 500	497	486	489	473	487	467	490	484	393
CN(C)C/C=C/C(=O)Nc1cc2c(Nc3ccc(F)c(Cl)c3)ncnc2cc1O[C@H]1CCOC1 [Afatinib]	489	342	352	456	493	472	491	442	408	271	253
Nc1cc(C(F)(F)F)c(-c2cc(N3CCOCC3)nc(N3CCOCC3)n2)cn1 [Buparlisib]	425	436	449	383	447	413	416	440	454	413	385
O=C1NC(=O)[C@@H](c2cn3c4c(cccc24)CCC3)[C@@H]1c1c[nH]c2ccccc12 [Tivantinib]	404	375	377	349	455	358	345	367	415	350	320
